Measurements published in patent US8653071B2, “α4β2 neuronal nicotinic acetylcholine receptor ligands” (Suven Life Sciences Limited, priority 2009, dated 2014).
Counter-ions that a name gives are not always drawn.

What was measured:
[1] = molecular target: Nicotinic Acetylcholine α4β2 Receptor (UniProt P09483+P12390); test: Binding assay for human or rat nicotinic acetylcholine α4β2 receptor ([3H]Cytisine displacement); details: [3H]Cytisine 2.5 nM; rat brain frontal cortex or recombinant human receptor in CHO cells (not specified which); read-out: Ki
Procedure: Binding Assay for Human or Rat Nicotinic Acetylcholine α4β2 Receptor
• Receptor source: Rat brain frontal cortex or recombinant human cDNA expressed in CHO cells • Radioligand: [^3H]Cytisine 15-40 Ci/mmole • Final ligand concentration—[2.5 nM] • Non-specific determinant: Epibatidine—[0.1 μM] • Reference compound: Epibatidine • Positive control: Epibatidine Incubation Conditions:
Increasing concentrations of test compounds or standard were incubated with membrane receptors and radioligand in 120 mM NaCl, 2.5 mM KCl, 1 mM CaCl2, 1 mM MgCl2 and 50 mM TRIS-HCl (pH 7.4) for 60 minutes at room temperature. The reaction was terminated by rapid vacuum filtration onto the glass fiber filters. Radioactivity trapped onto the filters was determined and compared to the control values in order to ascertain any interactions of the test compound(s) with either cloned human or rat receptor binding site.
Literature Reference: Bunnelle W. H., Daanen J. F., Ryther K. B., Schrimpf M. R., Dart M. J., Gelain A., Meyer M. D., Frost J. M., Anderson D. J., Buckley M., Curzon P., Cao Y-J., Puttfarcken P., Searle X., Ji J., Putman C. B., Surowy C., Toma L. and Barlocco D. Structure-Activity Studies and Analgesic Efficacy of N-(3-Pyridinyl)-Bridged Bicyclic Diamines, Exceptionally Potent Agonists at Nicotinic Acetylcholine Receptors. J. Med. Chem. 2007, 50, […].

Male Wister rats = test: Object recognition task model; type: in vivo, rat; details: p.o.; for Exploration time mean ± S.E.M, Familiar object / Exploration time mean ± S.E.M, Novel object: choice trial
Procedure: Object Recognition Task Model
The cognition-enhancing properties of compounds of this invention were estimated using a model of animal cognition: the object recognition task model.
Male Wister rats (230-280 grams) obtained from N. I. N. (National Institute of Nutrition, Hyderabad, India) was used as experimental animals. Four animals were housed in each cage. […] Also the rats were habituated to individual arenas for 1 hour in the absence of any objects.
One group of 12 rats received vehicle (1 mL/Kg) orally and another set of animals received compound of the formula (I) either orally or i.p., before one hour of the familiar (T1) and choice trial (T2).
The experiment was carried out in a 50×50×50 cm open field made up of acrylic. In the familiarization phase, (T1), the rats were placed individually in the open field for 3 minutes, in which two identical objects (plastic bottles, 12.5 cm height×5.5 cm diameter) covered in yellow masking tape alone (a1 and a2) were positioned in two adjacent corners, 10 cm. from the walls. After 24 hours of the (T1) trial for long-term memory test, the same rats were placed in the same arena as they were placed in T1 trial. Choice phase (T2) rats were allowed to explore the open field for 3 minutes in presence of one familiar object (a3) and one novel object (b) (Amber color glass bottle, 12 cm high and 5 cm in diameter). Familiar objects presented similar textures, colors and sizes. During the T1 and T2 trial, explorations of each object (defined as sniffing, licking, chewing or having moving vibrissae whilst directing the nose towards the object at a distance of less than 1 cm) were recorded separately by stopwatch. Sitting on an object was not regarded as exploratory activity, however, it was rarely observed.
T1 is the total time spent exploring the familiar objects (a1+a2).
T2 is the total time spent exploring the familiar object and novel object (a3+b).
The object recognition test was performed as described by Ennaceur, A., Delacour, J., 1988, A new one-trial test for neurobiological studies of memory in rats—Behavioural data, Behav. Brain Res., 31, 47-59.

[2] = Rodent pharmacokinetic study; type: in vivo; details: Wistar, plasma, Wister rat/Male; for bioavailability: 5 mg/kg Per-Oral vs 5 mg/kg Intravenous; for AUC(0-t) / Cmax / Tmax / half-life: 5 mg/kg
Procedure: Rodent Pharmacokinetic Study
Three to five animals were housed in each cage. Animals were kept fasted over night and maintained on a 12 hours light/dark cycle. Three rats were dosed NCE orally (15 or 5 mg/kg) and intravenously (5 mg/kg) on day 0 and day 2
At each time point blood was collected by jugular vein. Plasma was stored frozen at −20° C. until analysis. The concentrations of the NCE compound in plasma were determined using LC-MS/MS method. Schedule time points: Pre dose 0.25, 0.5, 1, 1.5, 2, 3, 4, 6, 8, 10, 12 and 24 hours after dosing (n=3).
Pharmacokinetic parameters Cmax, Tmax, AUCt, T1/2 and Bioavailability were calculated by non-compartmental model using software WinNonlin version 5.0.1.

Row | Ki [1] | Compound | also measured
1 | 41.7 nM | CNCC1CC2CC2N1C(=O)c1ccco1 (single isomer, unassigned) [Example 3, Furan-2-yl-(3-methylaminomethyl-2-azabicyclo[3.1.0]hex-2-yl)methanone tartarate] | –
2 | 700 nM | CCNCC1CC2CC2N1c1cncc(Br)c1 (stereo not drawn) [Example 5, N-[2-(5-Bromopyridin-3-yl)-2-azabicyclo[3.1.0]hex-3-ylmethyl]ethylamine tartarate] | –
3 | 179 nM | CNCC1CC2CC2N1c1cncc(OC)c1 (stereo not drawn) [Example 14, N-[2-(5-Methoxypyridin-3-yl)-2-azabicyclo[3.1.0]hex-3-ylmethyl]methylamine fumarate] | –
4 | 383 nM | CNCC1CC2CC2N1c1cncc(OC(C)C)c1 (stereo not drawn) [Example 15, N-[2-(5-Isopropoxypyridin-3-yl)-2-azabicyclo[3.1.0]hex-3-ylmethyl]methylamine] | –
5 | 451 nM | NCC1CC2CC2N1c1cncc(Sc2ccccc2)c1 (stereo not drawn) [Example 16, [2-(5-Phenylsulfanylpyridin-3-yl)-2-azabicyclo[3.1.0]hex-3-yl]methylamine fumarate] | –
6 | 13 nM | CNCC1CC2CC2N1c1nccnc1O (stereo not drawn) [Example 20, N-[2-(3-Hydroxypyrazin-2-yl)-2-azabicyclo[3.1.0]hex-3-ylmethyl] methylamine] | –
7 | 681 nM | NCC1CC2CC2N1c1ccc(C(F)(F)F)nc1 (stereo not drawn) [Example 24, N-(2-(2-trifluoromethylpyridin-5-yl)-2-azabicyclo[3.1.0]hex-3-ylmethyl) amine fumarate] | –
8 | 6.9 nM | NCC1CC2CC2N1c1ccc(Cl)nc1 (stereo not drawn) [Example 25, N-(2-(2-chloropyridin-5-yl)-2-azabicyclo[3.1.0]hex-3-ylmethyl) amine fumarate] | –
9 | 5.7 nM | Cc1cncc(N2C(CN)CC3CC32)c1 (stereo not drawn) [Example 26, N-(2-(3-methylpyridin-5-yl)-2-azabicyclo[3.1.0]hex-3-ylmethyl) amine fumarate] | –
10 | 140 nM | NCC1CC2CC2N1c1cncc(C(F)(F)F)c1 (stereo not drawn) [Example 28, N-(2-(3-trifluoromethylpyridin-5-yl)-2-azabicyclo[3.1.0]hex-3-ylmethyl) amine fumarate] | –
11 | 135 nM | NCC1CC2CC2N1c1cnc2ccccc2c1 (stereo not drawn) [Example 29, N-(2-(quinolin-3-yl)-2-azabicyclo[3.1.0]hex-3-ylmethyl) amine fumarate] | –
12 | 247 nM | CNCC1CC2CC2N1c1cncc(C(F)(F)F)c1 (stereo not drawn) [Example 30, N-(2-(3-trifluoromethylpyridin-5-yl)-2-azabicyclo[3.1.0]hex-3-ylmethyl) methylamine fumarate] | –
13 | 1650 nM | CNCC1CC2CC2N1c1cnc2ccccc2c1 (stereo not drawn) [Example 31, N-(2-(quinolin-3-yl)-2-azabicyclo[3.1.0]hex-3-ylmethyl) methylamine fumarate] | –
14 | 38.3 nM | CNCC1CC2CC2N1C(=O)c1cc2ccccc2o1 (stereo not drawn) [Example 32, Benzofuran-2-yl-(3-methylaminomethyl-2-azabicyclo[3.1.0]hex-2-yl)methanone tartrate] | –
15 | 3000 nM | CNCC1CC2CC2N1C(=O)c1cc2cccc(Br)c2o1 (stereo not drawn) [Example 33, (7-Bromo benzofuran-2-yl)-(3-methylaminomethyl-2-azabicyclo[3.1.0]hex-2-yl) methanone tartrate] | –
16 | 55 nM | NCC1CC2CC2N1C(=O)c1cc2ccccc2[nH]1 (stereo not drawn) [Example 34, (3-Aminomethyl-2-azabicyclo[3.1.0]hex-2-yl)-(1H-indol-2-yl)-methanone] | –
17 | 17.8 nM | NCC1CC2CC2N1C(=O)c1cncc(Br)c1 (stereo not drawn) [Example 36, (3-Aminomethyl-2-azabicyclo[3.1.0]hex-2-yl) (5-bromo pyridin-3-yl) methanone tartrate] | –
18 | 11.6 nM | NCC1CC2CC2N1C(=O)c1ccccn1 (stereo not drawn) [Example 37, (3-Aminomethyl-2-azabicyclo[3.1.0]hex-2-yl) pyridin-2-yl methanone tartrate] | –
19 | 45 nM | NCC1CC2CC2N1C(=O)c1cccnc1 (stereo not drawn) [Example 38, (3-Aminomethyl-2-aza bicyclo[3.1.0]hex-2-yl) pyridin-3-yl methanone tartarate] | –
20 | 109 nM | NCC1CC2CC2N1C(=O)c1ccncc1 (stereo not drawn) [Example 39, (3-Aminomethyl-2-aza-bicyclo[3.1.0]hex-2-yl) pyridin-4-yl methanone tartarate] | –

Row | Compound | Ki [1] | also measured
21 | CNCC1CC2CC2N1c1cncc(Cl)c1.O=C(O)/C=C/C(=O)O (stereo not drawn) [Example 12, N-[2-(5-Chloropyridin-3-yl)-2-azabicyclo[3.1.0]hex-3-ylmethyl]methylamine fumarate] | 77.3 nM | Inference (Male Wister rats; 1 mg/kg): Active; Exploration time mean ± S.E.M, Familiar object (Male Wister rats; 1 mg/kg): 4.651 ± 0.619 s; Exploration time mean ± S.E.M, Novel object (Male Wister rats; 1 mg/kg): 16.70 ± 2.136 s
22 | NCC1CC2CC2N1c1cncnc1.O=C(O)/C=C/C(=O)O (stereo not drawn) [Example 22, N-(2-(pyrimidin-5-yl)-2-azabicyclo[3.1.0]hex-3-ylmethyl) amine fumarate] | 58.1 nM | bioavailability [2]: 89 ± 9%; AUC(0-t) ([2]; Intravenous): 2250 ± 228 ng·h/mL; Cmax ([2]; Intravenous): 1380 ± 156 ng/mL; Tmax ([2]; Intravenous): 15 min; half-life ([2]; Intravenous): 80.4 ± 4.2 min; AUC(0-t) ([2]; Per-Oral): 2020 ± 377 ng·h/mL; Cmax ([2]; Per-Oral): 1100 ± 211 ng/mL; Tmax ([2]; Per-Oral): 4.8 min; half-life ([2]; Per-Oral): 97.8 ± 6.6 min
23 | CNCC1CC2CC2N1c1cncc(C)c1 (stereo not drawn) [Example 27, N-(2-(3-methylpyridin-5-yl)-2-azabicyclo[3.1.0]hex-3-ylmethyl)methyl amine bistartarate] | 253 nM | –
24 | NCC1CC2CC2N1C(=O)c1ccco1.O=C(O)C(O)C(O)C(=O)O (stereo not drawn) [Example 35, (3-Aminomethyl-2-aza bicyclo[3.1.0]hex-2-yl) furan-2-yl methanone tartrate] | 38.7 nM | bioavailability [2]: 92 ± 8%; AUC(0-t) ([2]; Intravenous): 1420 ± 71 ng·h/mL; Cmax ([2]; Intravenous): 1780 ± 56 ng/mL; Tmax ([2]; Intravenous): 4.8 min; half-life ([2]; Intravenous): 67.8 ± 9 min; AUC(0-t) ([2]; Per-Oral): 1310 ± 146 ng·h/mL; Cmax ([2]; Per-Oral): 998 ± 175 ng/mL; Tmax ([2]; Per-Oral): 19.8 ± 8.4 min; half-life ([2]; Per-Oral): 89.4 ± 15.6 min; Inference (Male Wister rats; 0.3 mg/kg): Active; Exploration time mean ± S.E.M, Familiar object (Male Wister rats; 0.3 mg/kg): 5.30 ± 1.05 s; Exploration time mean ± S.E.M, Novel object (Male Wister rats; 0.3 mg/kg): 14.90 ± 7.74 s
